From patent publication US10071133B2, “Method for destroying exosomes, kit for destroying exosomes, and method for isolating exosomes derived from normal cells” (priority 2015, dated 2018)

How the values were obtained:
[1] = system: exosome fraction A prepared from the cell line MM231-luc-D3H2LN derived from human breast cancer cells; experiment: Destruction of exosomes in PBS, number of exosomes by nanoparticle analyzer (NanoSight LM10); assay type: biochemical; details: 100 μM peptide, 1.36×10^10 particles/mL exosomes in PBS, 25° C., 24 hours; without peptide 1.36×10^10
From the text: Storage samples were lightly suspended with a vortex mixer (vibration mixer) before use.

[2] = system: exosomes derived from human breast cancer cells (MM231-luc-D3H2LN) in human peripheral blood sample; details: […]10^10 particles/mL exosomes, 100 μM magainin 2 or 8% phenol, 25° C., 24 hours
Method: The exosome fraction A prepared from the cell line MM231-luc-D3H2LN derived from human breast cancer cells was added to a peripheral blood sample collected from a healthy person with no cancer (hereinafter will be also referred to as human peripheral blood sample) so as to become an exosome concentration of an actual cancer patient, and thereby an artificial sample of a human peripheral blood of the cancer patient was produced. The human peripheral blood sample was obtained after procurement of the patient informed consent according to the Declaration of Helsinki, similarly to the method described in Japanese Unexamined patent publication No. 2013-198483, for example. Blood was drawn using a blood collection tube containing an anticoagulant.
Using a part of the incubated solution, the exosomes were purified with Exo-Flow32 CD9 IP Kit (manufactured by SBI), and then the number of exosomes in the solution was measured using the nanoparticle analyzer (NanoSight LM10; manufactured by NanoSight, Ltd.). […] In addition, a part of the incubated solution was subjected to the serum component protein electrophoresis.

[3] = system: exosome fraction B derived from human breast cancer cells versus exosome fraction derived from human mammary gland cells (MCF-10A, normal cells); experiment: Selectivity: miR-16 ratio, breast cancer exosomes versus mammary gland normal cell exosomes (Formula 1); assay type: biochemical
Method: (§1) A cell suspension of cell line MDA-MB-231-luc-D3H2LN derived from human breast cancer (=MM231-luc-D3H2LN, provided by the National Cancer Center Research Institute) was seeded in a dish containing RPMI 1640 medium (manufactured by Thermo Fisher Scientific Inc.) containing 10% fetal bovine serum. Subsequently, the cell line was grown at 37° C. under the condition that CO2 concentration was set to 5 volume % using a CO2 incubator, and then the medium was replaced with Advanced RPMI 1640 medium (manufactured by Thermo Fisher Scientific Inc.), followed by culturing for 48 hours, and therefore the culture solution containing exosomes was obtained. This culture solution was centrifuged at 2,000 G for 10 minutes to remove the precipitate, followed by centrifugation at 110,000 G for 70 minutes to precipitate the exosomes, and therefore an exosome fraction B was recovered. The recovered exosome fraction B was suspended in a phosphate buffered saline (PBS) and then stored at 4° C. Storage samples were lightly suspended with a vortex mixer (vibration mixer) before use.
A cell suspension of cell line MCF 10A derived from human mammary epithelial cells (provided by the National Cancer Center Research Institute) was seeded in a dish containing Mammary Epithelium Cell Basal Medium (manufactured by Lonza). Subsequently, the cell line was grown at 37° C. under the condition that CO2 concentration was set to 5 volume % using a CO2 incubator, and then the medium was replaced with a fresh medium, followed by culturing for 48 hours, and the culture solution containing exosomes was obtained. This culture solution was centrifuged at 2,000 G for 10 minutes to remove the precipitate, followed by centrifugation at 110,000 G for 70 minutes to precipitate the exosomes, and an exosome fraction was recovered. The recovered exosome fraction was suspended in a phosphate buffered saline (PBS) and then stored at 4° C. Storage samples were lightly suspended with a vortex mixer (vibration mixer) before use.
MicroRNA (miR-21 or miR-16) in the reaction solution was subjected to reverse transcription PCR using reverse transcription primers (manufactured by Thermo Fisher Scientific Inc., Taqman microRNA Assays, RT primers, and hsa-mir-21 or hsa-mir-16) and a reverse transcriptase (manufactured by Thermo Fisher Scientific Inc., Taqman microRNA RT kit).
The reverse transcription PCR solution obtained by the above described method was processed and by comparing the number of cycles on a calibration curve of microRNA using Taqman Assay primer (manufactured by Thermo Fisher Scientific Inc., Taqman microRNA Assays, Taqman Assay primer, and hsa-mir-21 or hsa-mir-16) and Real-Time PCR Master Mixes (manufactured by Thermo Fisher Scientific Inc., TaqMan Universal PCR Master Mix II, w/UNG) with StepOnePlus Real-Time PCR System, MiR-21 or miR-16 was quantified. The calibration curve of microRNA was created using synthetic miR-21 (manufactured by Sigma-Aldrich Co. LLC.) or synthetic miR-16 (manufactured by Sigma-Aldrich Co. LLC.).
10 μL of the exosome fraction was prepared such that PBS contains 1×10^11 particles/mL of the exosome fraction B derived from human breast cancer cells, various antimicrobial peptides shown in the following Table 4 adjusted to 100 μM, and 0.4 U/μL of RNase inhibitor (manufactured by Toyobo Co., Ltd.), followed by incubation by being left to stand at 37° C. for 24 hours.
Thereafter, the eluted MicroRNA (miR-16) was purified and recovered from the incubated solution by the same method as the above described method for extraction from the incubated solution of Examples 10 and 11 above and Comparative Examples 6 and 7 above. […]

[4] = system: exosome fraction B derived from human breast cancer cells versus exosome fraction derived from normal human serum; experiment: Selectivity: miR-16 ratio, breast cancer exosomes versus normal human serum exosomes (Formula 2); assay type: biochemical; details: Formula 2, cancer/normal human serum exosomes; magainin 2 100 μM, 37° C., 24 hours
Method: as §1
Storage samples were lightly suspended with a vortex mixer (vibration mixer) before use. […]

Magainin 2
number of exosomes in the solution [1]: 1.89×10^9 particles/mL
exosome amount compared to Comparative Example 3 (no additive) [2]: decreased
mir-16 ratio ([3]; Formula 1, cancer/normal (MCF-10A), 100 μM peptide, 37° C., 24 hours): 26
Selectivity ([3]; from miR-16 ratio versus Comparative Example 8, breast cancer vs MCF-10A exosomes): B (evaluated as “B” in a case where the calculated miR-16 value was higher than the miR-16 ratio of Comparative Example 8)
mir-16 ratio [4]: 56.6
